Structures can show the parent of a compound that is named as a salt.
What was measured:
H1299 = test: In vitro drug sensitivity test of cells, MTS method; type: cell-based; settings: culture time 72 h-216 h
Source text: (§1) 1640 medium (Gibco), DMEM medium (Hyclone), MEM medium (Gibco), […] medium (Gibco), DMEM/F12 medium (Gibco), L-15 medium (Hyclone), IMDM culture Base (Hyclone), non-essential amino acid (Gibco), sodium pyruvate (Gibco), insulin-transferrin-selenium additive TS-G, Shanghai Yuanpei Bio-tech), fetal bovine serum ([…]), trypsin digestion fluid (Jiangsu KGI), Cell Titer 96® AQueousOne Solution Cell Proliferation Assay (Promega), 96-well cell culture plate (Corning, Cat. No. 3599), Cisplatin (sigma, Cat. No. P4394), Olaparib (Selleck, Cat. No. S1060), Topotecan hydrochloride hydrate (Sigma, article number T2705), Paclitaxel (Dalian Meilun, article number MB1178). [table] […] Then the inventors adjusted the cell suspension concentration to 1×10^4/mL, added the cells to a 96 well plate as 100 ul per well, that is, 1000-2000 cells per well. Then the cells were incubated at 5% CO2, 37° C. overnight. The next day, after the cells at the bottom of the 96-well plate adhered, various drugs with different concentration gradients were added: […] After putting the 96-well plate into a CO2 incubator for 72 hours, the cell morphology and density in each were observed. For slow-growing cells, supplementation treatment was needed. For different cells, the culture time was between 72 h-216 h, and most of the cell culture time was between 144 h-168 h. […] Measure the absorbance (OD) of each well at 492 nm. Cell Viabilities was calculated by the formula: [formula]

KYSE450 = test: as above; type: cell-based; settings: culture time 72 h-216 h
Source text: as §1

CAMA-1 = test: as above; type: cell-based; settings: CAMA-1 human breast cancer cells, culture time 72 h-216 h
Source text: as §1

HT29 = test: as above; type: cell-based; settings: culture time 72 h-216 h
Source text: as §1

MDA-MB-436 = test: as above; type: cell-based; settings: MDA-MB-436 human breast cancer cells, culture time 72 h-216 h
Source text: as §1

HCC1937 = test: as above; type: cell-based; settings: HCC1937 human breast cancer cells, culture time 72 h-216 h
Source text: as §1

A549 = test: as above; type: cell-based; settings: A549 human non-small cell lung adenocarcinoma cells, culture time 72 h-216 h
Source text: as §1

H1650 = test: as above; type: cell-based; settings: culture time 72 h-216 h
Source text: as §1

HEK-293 = test: as above; type: cell-based; settings: culture time 72 h-216 h
Source text: as §1

H1975 = test: as above; type: cell-based; settings: culture time 72 h-216 h
Source text: as §1

H2444 = test: as above; type: cell-based; settings: culture time 72 h-216 h
Source text: as §1

PC-3 = test: as above; type: cell-based; settings: PC-3 human prostate cancer cells, culture time 72 h-216 h
Source text: as §1

H3122 = test: as above; type: cell-based; settings: culture time 72 h-216 h
Source text: as §1

H520 = test: as above; type: cell-based; settings: culture time 72 h-216 h
Source text: as §1

MCF-7 = test: as above; type: cell-based; settings: culture time 72 h-216 h
Source text: as §1

H2228 = test: as above; type: cell-based; settings: culture time 72 h-216 h
Source text: as §1

HCC4006 = test: as above; type: cell-based; settings: HCC4006 human lung adenocarcinoma cells, culture time 72 h-216 h
Source text: as §1

T84 = test: as above; type: cell-based; settings: T84 human colon cancer cells, culture time 72 h-216 h
Source text: as §1

HCC95 = test: as above; type: cell-based; settings: HCC95 human lung cancer cells, culture time 72 h-216 h
Source text: as §1

Cal-120 = test: as above; type: cell-based; settings: Cal-120 human breast cancer cells, culture time 72 h-216 h
Source text: as §1

HCC827 = test: as above; type: cell-based; settings: HCC827 human lung adenocarcinoma cells, culture time 72 h-216 h
Source text: as §1

Capan-1 = test: as above; type: cell-based; settings: Capan-1 human pancreatic cancer cells, culture time 72 h-216 h
Source text: as §1

TNBC patients = settings: CALGB 40603 study, combined carboplatin, cited from earlier work
[1] = NCI-H1299, H1299 human non-small cell lung cancer cells
[2] = KYSE-450, KYSE450 human esophageal cancer cells
[3] = HT-29, HT29 human colon cancer cells
[4] = NCI-H1650, H1650 human lung cancer cells
[5] = HEK293, HEK-293 human embryonic kidney cells
[6] = NCI-H1975, H1975 human non-small cell lung adenocarcinoma cells
[7] = NCI-H2444, H2444 human non-small cell lung cancer cells
[8] = NCI-H3122, H3122 human non-small cell lung cancer cells
[9] = NCI-H520, H520 human non-small cell lung squamous cell
[10] = MCF7, MCF-7 human breast cancer cells
[11] = NCI-H2228, H2228 human non-small cell lung adenocarcinoma cells

For `CC(=O)O[C@H]1C(=O)[C@@]2(C)[C@H]([C@H](OC(=O)c3ccccc3)[C@]3(O)C[C@H](OC(=O)[C@H](O)[C@@H](NC(=O)c4ccccc4)c4ccccc4)C(C)=C1C3(C)C)[C@]1(OC(C)=O)CO[C@@H]1C[C@@H]2O` [Paclitaxel], the IC50 (H1299; [1]) was 22.7 nM, the IC50 (KYSE450; [2]) was 11.5 nM and the IC50 (CAMA-1) was 4.16 nM. It also gave an IC50 (HT29; [3]) of 3.05 nM, an IC50 (MDA-MB-436) of 9.67 nM and an IC50 (HCC1937) of 9 nM. It also gave an IC50 (A549) of 5.86 nM, an IC50 (H1650; [4]) of 6.61 nM and an IC50 (HEK-293; [5]) of 10.3 nM. For the same compound, the IC50 (H1975; [6]) was 7 nM, the IC50 (H2444; [7]) was 7.1 nM and the IC50 (PC-3) was 4.27 nM. The IC50 (H3122; [8]) was 8.48 nM, the IC50 (H520; [9]) was 6.99 nM and the IC50 (MCF-7; [10]) was 4.84 nM. The IC50 (H2228; [11]) was 5.2 nM, the IC50 (HCC4006) was 3.85 nM and the IC50 (T84) was 32.1 nM. The IC50 (HCC95) was 6.13 nM, the IC50 (Cal-120) was 43.5 nM and the IC50 (HCC827) was 9.26 nM. The IC50 (Capan-1) was 6.99 nM.
With `CC[C@@]1(O)C(=O)OCc2c1cc1n(c2=O)Cc2cc3c(CN(C)C)c(O)ccc3nc2-1` [Topotecan, Topotecan hydrochloride hydrate] the IC50 (H1299; [1]) was 28.7 nM, the IC50 (KYSE450; [2]) was 26.3 nM and the IC50 (CAMA-1) was 0.907 nM. For the same compound, the IC50 (HT29; [3]) was 15.6 nM, the IC50 (MDA-MB-436) was 4.21 nM and the IC50 (HCC1937) was 35.2 nM. For the same compound, the IC50 (A549) was 250 nM, the IC50 (H1650; [4]) was 125 nM and the IC50 (HEK-293; [5]) was 18 nM. It also gave an IC50 (H1975; [6]) of 250 nM, an IC50 (H2444; [7]) of 8.09 nM and an IC50 (PC-3) of 20.1 nM. It also gave an IC50 (H3122; [8]) of 20 nM, an IC50 (H520; [9]) of 9.17 nM and an IC50 (MCF-7; [10]) of 2.05 nM. For the same compound, the IC50 (H2228; [11]) was 24.6 nM, the IC50 (HCC4006) was 23.1 nM and the IC50 (T84) was 7.56 nM. For the same compound, the IC50 (HCC95) was 46.7 nM, the IC50 (Cal-120) was 518 nM and the IC50 (HCC827) was 12.6 nM. It also gave an IC50 (Capan-1) of 15.8 nM.
In the case of `O=C(c1cc(Cc2n[nH]c(=O)c3ccccc23)ccc1F)N1CCN(C(=O)C2CC2)CC1` [Olaparib], the IC50 (H1299; [1]) is reported as 40000 nM, the IC50 (KYSE450; [2]) is reported as 130000 nM and the IC50 (CAMA-1) is reported as 8330 nM. It also gave an IC50 (HT29; [3]) of 7660 nM, an IC50 (MDA-MB-436) of under 2500 nM and an IC50 (HCC1937) of 10000 nM. It also gave an IC50 (A549) of 80000 nM, an IC50 (H1650; [4]) of 75000 nM and an IC50 (HEK-293; [5]) of 5880 nM. The IC50 (H1975; [6]) was 80000 nM, the IC50 (H2444; [7]) was 7670 nM and the IC50 (PC-3) was 6220 nM. The IC50 (H3122; [8]) was 16900 nM, the IC50 (H520; [9]) was 2190 nM and the IC50 (MCF-7; [10]) was 3510 nM. For the same compound, the IC50 (H2228; [11]) was 10800 nM, the IC50 (HCC4006) was 9140 nM and the IC50 (T84) was 5850 nM. For the same compound, the IC50 (HCC95) was 25300 nM, the IC50 (Cal-120) was 160000 nM and the IC50 (HCC827) was 6080 nM. For the same compound, the IC50 (Capan-1) was 2570 nM.
In the case of carboplatin, the “breast/axillary pCR rates” value (TNBC patients; vs 41% without, P=0.0029) is listed as 54% and the “breast pCR rates” value (TNBC patients; vs 44% without, P=0.0018) is listed as 60%.
For `N.N.[Cl][Pt][Cl]` [Cisplatin, cis-diaminedichloroplatinum(II)], the IC50 (H1299; H1299 human non-small cell lung cancer cells) was 2000 nM, the IC50 (KYSE450; KYSE450 human esophageal cancer cells) was 1460 nM and the IC50 (CAMA-1) was 1400 nM. For the same compound, the IC50 (HT29; HT29 human colon cancer cells) was 692 nM, the IC50 (MDA-MB-436) was 139 nM and the IC50 (HCC1937) was 259 nM. For the same compound, the IC50 (A549) was 1000 nM, the IC50 (H1650; H1650 human lung cancer cells) was 1060 nM and the IC50 (HEK-293; HEK-293 human embryonic kidney cells) was 465 nM. It also gave an IC50 (H1975; H1975 human non-small cell lung adenocarcinoma cells) of 7000 nM, an IC50 (H2444; H2444 human non-small cell lung cancer cells) of 1140 nM and an IC50 (PC-3) of 799 nM. It also gave an IC50 (H3122; H3122 human non-small cell lung cancer cells) of 1540 nM, an IC50 (H520; H520 human non-small cell lung squamous cell) of 464 nM and an IC50 (MCF-7; MCF-7 human breast cancer cells) of 894 nM. The IC50 (H2228; H2228 human non-small cell lung adenocarcinoma cells) was 514 nM, the IC50 (HCC4006) was 1000 nM and the IC50 (T84) was 433 nM. For the same compound, the IC50 (HCC95) was 878 nM, the IC50 (Cal-120) was 4440 nM and the IC50 (HCC827) was 626 nM. The IC50 (Capan-1) was 214 nM.
